As usually defined, the IC50 is the concentration needed to halve the response being measured. A low value points to greater potency in that assay. A word on the half-life: it is how long it takes for the measured level to halve. The MIC is the smallest concentration in the dilution series that meets the test's criterion for growth inhibition. High values mean weaker potency, low ones greater potency.

Structures are written as SMILES. In brackets after ≈: the same amount, converted by molar mass.

Data set [1] relates to Giardia intestinalis. The data set is described as follows: Antigiardial activity against Giardia intestinalis IMSS:0696:1 incubated for 48 hrs followed by wash out by hemocytometric counting method. It counts as functional, organism-based. Conditions: Giardia duodenalis, IMSS:0696:1, 48 h.
Data set [2] concerns Giardia intestinalis. The data set is described as follows: Antigiardial activity against Giardia duodenalis Ac2 incubated for 3 days by fluorescence method. Conditions: Ac2, 72 h. In kind it is functional, organism-based.
Data set [3] concerns Giardia intestinalis. The data set is described as follows: Antigiardial activity against Giardia duodenalis WB (ATCC 30957) incubated for 3 days by fluorescence method. It counts as functional, organism-based. Conditions: WB ATCC 30957, 72 h.
Data set [4] has as its system Giardia intestinalis. The data set is described as follows: Antigiardial activity against Giardia duodenalis Ac1 incubated for 3 days by fluorescence method. In kind it is functional, organism-based. Conditions: Ac1, 72 h.
Data set [5] is described as follows: Half-life of the compound. It counts as physicochemical.
In data set [6] the test system is Giardia intestinalis. The data set is described as follows: Antigiardial activity against Giardia duodenalis Ah1 incubated for 3 days by fluorescence method. Particulars: Ah1, 72 h. In kind it is functional, organism-based.
Data set [7] has as its system Giardia intestinalis. The data set is described as follows: Antigiardial activity against Giardia duodenalis G1 incubated for 3 days by fluorescence method. It counts as functional, organism-based. Conditions: G1, 72 h.
In data set [8] the test system is Giardia intestinalis. The data set is described as follows: Antigiardial activity against Giardia duodenalis Ah2 incubated for 3 days by fluorescence method. It counts as functional, organism-based. Conditions: Ah2, 72 h.
Data set [9] relates to Giardia intestinalis. The data set is described as follows: Antigiardial activity against Giardia duodenalis GS/M-83-H7 (ATCC 50581) incubated for 3 days by fluorescence method. In kind it is functional, organism-based. Conditions: 72 h.
The subject of data set [10] is Giardia intestinalis. The data set is described as follows: Antigiardial activity against Giardia duodenalis Ec2 incubated for 3 days by fluorescence method. In kind it is functional, organism-based. Conditions: Ec2, 72 h.
For data set [11], the system named is Giardia intestinalis. The data set is described as follows: Antigiardial activity against Giardia duodenalis Ec1 incubated for 3 days by fluorescence method. It counts as functional, organism-based. Particulars: Ec1, 72 h.
Data set [12] deals with Giardia intestinalis. The data set is described as follows: Antigiardial activity against Giardia lamblia WB (ATCC 30957) incubated for 3 days by [3H]thymidine incorporation based assay. It counts as functional, organism-based. Conditions: Giardia duodenalis. Background: Dividing cells build labelled thymidine or BrdU into new DNA.
Data set [13] concerns Giardia intestinalis. The experiment in a line: Antigiardial activity against metronidazole-resistant Giardia duodenalis 106-2ID10. It counts as functional.
The test system of data set [14] is Giardia intestinalis. The data set is described as follows: Antigiardial activity against metronidazole-resistant Giardia duodenalis 713-M3. In kind it is functional.
Data set [15] has as its system Giardia intestinalis. The experiment in a line: Antigiardial activity against metronidazole-resistant Giardia duodenalis WB-M3. In kind it is functional.
Data set [16] in a line: Selectivity ratio of CC50 for human HeLa cells incubated for 2 days by alamarBlue reagent to IC50 for Giardia lamblia 713M3 measured after 48 hrs by BacTiter-Glo cell viability assay. It counts as toxicity. Particulars: read-out: Ratio CC50/IC50.
Data set [17] concerns Giardia intestinalis. The experiment in a line: Antimicrobial activity against Giardia lamblia BRIS/83/HEPU/106 trophozoites measured after 2 days by BacTiter-Glo cell viability assay. In kind it is functional, organism-based. Conditions: Giardia duodenalis, BRIS/83/HEPU/106, 48 h.
Data set [18] can be described thus: Selectivity ratio of CC50 for human HeLa cells incubated for 2 days by alamarBlue reagent to IC50 for Giardia lamblia BRIS/87/HEPU/713 measured after 48 hrs by BacTiter-Glo cell viability assay. In kind it is toxicity. Conditions: read-out: Ratio CC50/IC50. On the technique in general: The colour change of resazurin is a common sign of viable cells or microbes.

For data set [19], the system named is Giardia intestinalis. The data set is described as follows: Antimicrobial activity against Giardia lamblia BRIS/87/HEPU/713 trophozoites measured after 48 hrs by BacTiter-Glo cell viability assay. Particulars: Giardia duodenalis, BRIS/87/HEPU/713, 48 h. In kind it is functional, organism-based.
Data set [20] has as its system Giardia intestinalis. The experiment in a line: Antimicrobial activity against Giardia lamblia WB-M2 trophozoites measured after 2 days by BacTiter-Glo cell viability assay. In kind it is functional, organism-based. Conditions: Giardia duodenalis, WB-M2, 48 h.
A short description of data set [21]: Selectivity ratio of CC50 for human HeLa cells incubated for 2 days by alamarBlue reagent to IC50 for Giardia lamblia BRIS/83/HEPU/106 measured after 48 hrs by BacTiter-Glo cell viability assay. In kind it is toxicity. Particulars: read-out: Ratio CC50/IC50.
A short description of data set [22]: Selectivity ratio of EC50 for Giardia lamblia WB-M2 trophozoites to EC50 for Giardia lamblia BRIS/87/HEPU/713 trophozoites. It counts as functional.
Data set [23] is described as follows: Selectivity ratio of EC50 for Giardia lamblia 713-M3 trophozoites to EC50 for Giardia lamblia BRIS/87/HEPU/713 trophozoites. In kind it is functional.
The nature of data set [24]: Selectivity ratio of CC50 for human HeLa cells incubated for 2 days by alamarBlue reagent to IC50 for Giardia lamblia WB-M2 measured after 48 hrs by BacTiter-Glo cell viability assay. It counts as toxicity. Conditions: time 2 day, read-out: Ratio CC50/IC50.
Data set [25] has as its system Giardia intestinalis. The data set is described as follows: Antimicrobial activity against Giardia lamblia 713M3 trophozoites measured after 2 days by BacTiter-Glo cell viability assay. In kind it is functional, organism-based. Conditions: Giardia duodenalis, 713M3, 48 h.
The test system of data set [26] is Giardia intestinalis. The data set is described as follows: Antigiardial activity against nitazoxanide resistant Giardia lamblia N1-INP incubated for 48 hrs by haemocytometric counting method. It counts as functional. Particulars: Giardia duodenalis, read-out: LD50 (the source's name).
Data set [27] deals with Giardia intestinalis. The experiment in a line: Antigiardial activity against Giardia lamblia WB incubated for 48 hrs by haemocytometric counting method. It counts as functional. Conditions: Giardia duodenalis, read-out: LD50 (the source's name).
Data set [28] deals with Giardia intestinalis. The experiment in a line: Antigiardial activity against drug susceptible Giardia lamblia incubated for 48 hrs by haemocytometric counting method. It counts as functional. Conditions: Giardia duodenalis, read-out: LD50 (the source's name).
The subject of data set [29] is Giardia intestinalis. The data set is described as follows: Antigiardial activity against Giardia intestinalis WB incubated for 48 hrs by hemocytometric counting method. In kind it is functional, organism-based. Conditions: Giardia duodenalis.
For data set [30], the system named is Giardia intestinalis. The experiment in a line: Antigiardial activity against Giardia intestinalis N1-INP incubated for 48 hrs followed by hemocytometric counting method. In kind it is functional, organism-based. Conditions: Giardia duodenalis.
For data set [31], the system named is Giardia intestinalis. The experiment in a line: Antigiardial activity against Giardia intestinalis IMSS-1090-1 incubated for 48 hrs followed by hemocytometric counting method. It counts as functional, organism-based. Particulars: Giardia duodenalis, IMSS-1090-1, 48 h.
Data set [32] relates to Giardia intestinalis. The data set is described as follows: Antigiardial activity against Giardia intestinalis UNAM-0688-2 incubated for 48 hrs followed by hemocytometric counting method. In kind it is functional, organism-based. Conditions: Giardia duodenalis, UNAM-0688-2, 48 h.
For data set [33], the system named is Giardia intestinalis. The data set is described as follows: Antigiardial activity against Giardia intestinalis WB30957 incubated for 48 hrs followed by hemocytometric counting method. In kind it is functional, organism-based. Conditions: Giardia duodenalis, WB30957, 48 h.
In data set [34] the test system is Giardia intestinalis. The experiment in a line: Antigiardial activity against Giardia intestinalis BRIS/91/HEPU/1411 incubated for 48 hrs followed by compound wash out by hemocytometric counting method. It counts as functional, organism-based. Particulars: Giardia duodenalis, BRIS/91/HEPU/1411, 48 h.
Data set [35] relates to Giardia intestinalis. The experiment in a line: Antigiardial activity against Giardia intestinalis WB ATCC 30957 incubated for 72 hrs by hemocytometric counting method. In kind it is functional, organism-based. Particulars: Giardia duodenalis, WB ATCC 30957, 72 h.
Data set [36] has as its system Giardia intestinalis. The data set is described as follows: Antigiardial activity against Giardia lamblia H/7 incubated for 48 hrs by microscopic method. In kind it is functional, organism-based. Particulars: Giardia duodenalis, H/7, 48 h.
Data set [37] deals with Giardia intestinalis. The data set is described as follows: Antigiardial activity against Giardia lamblia WB incubated for 48 hrs by microscopic method. In kind it is functional, organism-based. Conditions: Giardia duodenalis.
Data set [38] deals with Giardia intestinalis. The experiment in a line: Antigiardial activity against Giardia lamblia P1 incubated for 48 hrs by haemocytometric counting method. Particulars: Giardia duodenalis, P1, 48 h. In kind it is functional, organism-based.

The compound `Cc1ncc([N+](=O)[O-])n1CCOC(=O)Nc1ccccc1` had an IC50 in the data set with Giardia intestinalis [1] of 500 nM.

Turning to `CCS(=O)(=O)CCn1c([N+](=O)[O-])cnc1C` [TINIDAZOLE], the 50% inhibitory concentration (IC50) in the data set with Giardia intestinalis [2], with Giardia intestinalis [3], in the data set on Giardia intestinalis [4], in the data set on Giardia intestinalis [6], in the data set on Giardia intestinalis [7] and in the data set with Giardia intestinalis [8] was 300 nM throughout. The IC50 with Giardia intestinalis [9], in the data set with Giardia intestinalis [10], in the data set on Giardia intestinalis [11] and in the data set with Giardia intestinalis [12] was 300 nM each time. Also, in [5], the half-life was 720 min.

As to `Cc1ncc([N+](=O)[O-])n1CC(C)O` (stereo unspecified) [SECNIDAZOLE], the half-inhibitory concentration (IC50) in the data set on Giardia intestinalis [1] is 4100 nM. In other words, the single-digit micromolar range.

Regarding `Cc1ccc(C(Br)C(Br)c2ncc([N+](=O)[O-])n2C)cc1` (stereo unspecified), the figures for the MIC against Giardia intestinalis [13], with Giardia intestinalis [14] and with Giardia intestinalis [15] were 5 µM (≈ 2.02 µg/mL), 10 µM (≈ 4.03 µg/mL) and 5 µM (≈ 2.02 µg/mL), respectively.

Consider `CN(Cc1ccccc1)Cc1cn(CCCCCC(=O)Nc2ncc([N+](=O)[O-])s2)nn1`, for which the selectivity ratio at 48 h in data set [16] is greater than 8; in data set [18] it was greater than 500; in [21] it was greater than 8; in data set [24], greater than 8. In addition, the IC50 stood at 100 nM in the data set with Giardia intestinalis [17], 100 nM with Giardia intestinalis [19], 6.5 µM in the data set with Giardia intestinalis [20] and 100 nM in the data set on Giardia intestinalis [25]. Besides, the Ratio EC50 in data set [22] was 65; in data set [23] it was 20.

In the case of `COc1ccc2[nH]c([S+]([O-])Cc3ncc(C)c(OC)c3C)nc2c1` (stereo unspecified) [OMEPRAZOLE], the values for the LC50 with Giardia intestinalis [26], in the data set on Giardia intestinalis [27] and in the data set on Giardia intestinalis [28] were 544 nM, 116 nM and 116 nM, respectively.

As to `CSc1nc2cc(Cl)c(C(=O)Nc3ncc([N+](=O)[O-])s3)cc2n1C`, the IC50 in the data set with Giardia intestinalis [29] came to 10 nM; with Giardia intestinalis [30], 71 nM; with Giardia intestinalis [31] it was 10 nM; with Giardia intestinalis [32], 10 nM; in the data set on Giardia intestinalis [33] it was 10 nM; in the data set with Giardia intestinalis [34] it was 10 nM.

In turn, `Cc1ncc([N+](=O)[O-])n1CCOC(=O)Nc1ccc(F)cc1` showed an IC50 in the data set with Giardia intestinalis [1] of 500 nM. That is a sub-micromolar value.

In the data set on Giardia intestinalis [1], `Cc1ncc([N+](=O)[O-])n1CCOC(=O)Nc1ccc([N+](=O)[O-])cc1` returned an IC50 of 500 nM.

In turn, `Cc1ncc([N+](=O)[O-])n1CCNC(=O)/C=C/c1ccc([N+](=O)[O-])o1` returned an IC50 in the data set on Giardia intestinalis [35] of 5.6 µM. That is a single-digit micromolar value.

In the case of `CC(=O)c1ccc(-c2cn(CCn3c([N+](=O)[O-])cnc3/C=C/c3ccco3)nn2)cc1`, the selectivity ratio at 48 h in data set [18] was greater than 16800. Also, the IC50 in the data set on Giardia intestinalis [19] turned out to be 3 nM.

As for `CCCSc1ccc2nc(NC(=O)OC)[nH]c2c1` [ALBENDAZOLE], the IC50 with Giardia intestinalis [2], with Giardia intestinalis [3], in the data set on Giardia intestinalis [4], with Giardia intestinalis [6], in the data set with Giardia intestinalis [7] and in the data set with Giardia intestinalis [8] was 55 nM each time. The 50% inhibitory concentration (IC50) with Giardia intestinalis [9], in the data set with Giardia intestinalis [10] and in the data set with Giardia intestinalis [11] was 55 nM each time. For the same compound, the half-life in [5] is 480 min.

In the data set on Giardia intestinalis [35], `O=C(/C=C/c1ccc([N+](=O)[O-])o1)N1CCN(c2ccnc3cc(Cl)ccc23)CC1` gave an IC50 of 145 µM.

With `COC(=O)Nc1nc2ccc(C(=O)c3ccccc3)cc2[nH]1` [MEBENDAZOLE], the IC50 in the data set on Giardia intestinalis [36], in the data set with Giardia intestinalis [37] and in the data set with Giardia intestinalis [38] was 60 nM throughout. For the same compound, in data set [5], the half-life was 150 min.

Compound `Cc1ncc([N+](=O)[O-])n1CCOC(=O)NC1CCCCC1` registered an IC50 with Giardia intestinalis [1] of 500 nM.
